From patent US20040106802A1, “Novel compounds and therapeutic uses thereof” (TORRENT PHARMACEUTICALS LTD., priority 2002, published 2004)
Where “and” joins values, the source holds several entries; their conditions need not be identical. Equal entries are not always repeated. Structures can show the parent of a compound that is named as a salt. Where two headings read alike, the source gives them in different places.

How the values were obtained:
[1] = system: STZ induced diabetic rats; assay: In vivo oral glucose tolerance study in nSTZ induced diabetic rats, i.v. drug; conditions: 8 mg/ml/kg i.v.
Method: In Vivo Oral Glucose Tolerance Studies
The anti-hyperglycemic effect of compound no. 95 (8 mg/ml/kg, i.v) after an oral glucose load of 1 gm/kg was studied in STZ induced diabetic rats (modified method of Balkan et al 1999).
Animals: Male STZ induced diabetic rats aged 10-12 weeks and weighing between 200-250 gm were used for the study. These rats were treated with streptozotocin administered intraperitoneally on the day of birth at a dose of 90 mg/kg. They were maintained under standard conditions till the age of 10-12 weeks when they were used for the study.
Materials: Glucose solution (1 gm/4 ml of saline), Diethyl ether compound no. 95 (8 mg/ml/kg), vehicle (1 ml/kg), Heparinized saline (100 IU/ml), glucometer and strips
Method: Animals were divided into two groups
Group I: 8 hours fasted rats were treated with compound no. 95 vehicle (1 ml/kg, i.v.) 5 min before administration of glucose load.
Group II: 8 hours fasted rats were treated with compound no. 95 (8 mg/ml/kg, i.v) 5 min before administration of glucose load.
In both groups, blood samples were taken before administration of vehicle/compound no. 95 and glucose load for blood glucose estimation. Blood glucose level before administration of compound no. 95 or its vehicle was considered as −5 min reading. Blood glucose level before administration of glucose was considered as 0 min reading.
After 10, 20, 30, 45, 60, 75, 90, 120, 150 and 180 min of glucose administration, blood glucose level was estimated by the glucose oxidase method using a LifeScan glucometer (Ca, USA). Blood glucose level at various time points was subtracted from the basal (0 min) reading. This was done to avoid changes in AUC because of variation in basal glucose level. The glucose excursion at various time points was plotted against time and the AUC was calculated.
The activity of compound no. 95 was expressed as % reduction in AUC as compared with that of its vehicle.

[2] = In-vitro free radical scavenging activity using DPPH free radical; conditions: 30° C., 30 minutes, 515 nm
Outline: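 Compound solutions in methanol (10, 1, 0.5, 0.25 and 0.125 mM before a 1:10 addition) were mixed with 10^−4M methanolic DPPH and held 30 min at 30 °C. Absorbance was read at 515 nm against a methanol blank. % antioxidant activity = 100 − (OD test/OD control × 100).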

Porcine DPP-IV = biological target: T1, Porcine DPP-IV (Sus scrofa, UniProt P22411); assay: Assay of DPP-IV enzyme inhibitory activity (spectrophotometric, Gly-Pro-pNA cleavage); type: biochemical; conditions: Porcine DPP-IV, Gly-Pro-pNA substrate, 30° C., mean ± SD of three experiments except compound Nos. 133 & 139, read-out: IC50 (μM) Mean ± SD, inhibitory activity on DPP-IV enzyme activity
T1 construct: purchased Sigma-Aldrich Germany
T1 sequence (P22411 whole entry): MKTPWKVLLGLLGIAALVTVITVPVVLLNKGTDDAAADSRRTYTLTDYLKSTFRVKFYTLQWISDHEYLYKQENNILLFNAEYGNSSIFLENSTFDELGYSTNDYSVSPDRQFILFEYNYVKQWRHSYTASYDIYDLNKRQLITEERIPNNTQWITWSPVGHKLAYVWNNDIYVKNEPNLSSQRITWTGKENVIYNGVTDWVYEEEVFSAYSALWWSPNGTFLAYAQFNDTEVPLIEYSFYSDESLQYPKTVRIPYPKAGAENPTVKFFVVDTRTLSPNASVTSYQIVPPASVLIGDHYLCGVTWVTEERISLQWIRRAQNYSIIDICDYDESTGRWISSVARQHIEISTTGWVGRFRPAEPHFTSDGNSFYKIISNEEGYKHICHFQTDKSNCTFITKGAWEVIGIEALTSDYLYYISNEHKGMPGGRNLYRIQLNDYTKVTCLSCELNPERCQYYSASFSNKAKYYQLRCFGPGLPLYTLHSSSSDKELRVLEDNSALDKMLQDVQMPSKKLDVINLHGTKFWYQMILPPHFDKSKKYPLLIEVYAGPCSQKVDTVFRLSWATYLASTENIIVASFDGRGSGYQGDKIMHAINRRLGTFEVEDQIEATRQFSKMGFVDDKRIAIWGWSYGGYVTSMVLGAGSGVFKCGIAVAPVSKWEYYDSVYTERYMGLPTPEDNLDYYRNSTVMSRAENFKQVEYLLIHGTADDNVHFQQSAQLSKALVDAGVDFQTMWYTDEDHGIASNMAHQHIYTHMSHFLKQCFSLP

nOSTZ diabetic rats = assay: Oral glucose tolerance test in neonatal streptozotocin-induced (nOSTZ) diabetic rats, oral drug; type: in vivo, Wistar rats; conditions: 22 mg/kg oral; for percent change in blood glucose from basal glucose level / peak glucose levels (% from basal level): glucose load 1 g/kg; for peak glucose levels (% from basal level): significantly lower than vehicle (157.07±14.17%); for glucose tolerance (in words): nOSTZ rats
Text: Effect of Compound no. 140 and Compound no. 142 on Oral Glucose Tolerance in Neonatel Streptozotocin-Induced (nO STZ) Diabetic Rats
Principle of Glucose Estimation by Glucometer (One Touch, Lifescan, USA)
Glucose and oxygen react in the presence of glucose oxidase yielding gluconic acid and hydrogen peroxide. Hydrogen peroxide subsequently oxidizes the dyes in a reaction mediated by Peroxidase producing a blue colored form of the dyes (Marks and Dawson, 1965). The intensity of the blue color is proportional to the glucose concentration in the sample.
Wistar rats were made type 2 diabetic by injecting streptozotocin (STZ) at the dose of 90 mg/kg intraperitoneally on the day of birth (nOSTZ) to male pups (Portha et al, 2001). Animals showing overnight fasted blood glucose levels between 7-10 mM at the age of 10-12 weeks were used for the study. On the day of the experiment, animals were fasted overnight with free access to water.
Oral Glucose Tolerance Test (OGTT) (Pospisilik et al, 2002)
External jugular vein of overnight fasted nOSTZ rats was cannulated using polyethylene cannula with heparinized (100 IU/ml) saline under ether anesthesia and exteriorized at the back of the neck. After the animal was recovered from the anesthesia, blood sample was drawn as marked as ‘−5 min’ sample and drug formulation (in 0.5% sodium caboxymethyl cellulose, Na-CMC) was administered orally at the volume of 1 ml/kg body weight.
5 min after drug administration, blood sample was drawn as ‘0 min’ sample and glucose load at the dose of 1 g/kg body weight was administered orally. Blood samples were drawn subsequently at 5, 10, 15, 20, 30, 45, 60, 75, 90, 120, 180, 240 and 360 min time interval. Blood glucose is measured using glucometer.
Animals were divided into three groups: 1. Vehicle (0.5% Na-CMC) treated, 2. Compound no. 140 treated (22 mg/kg) and 3. Compound no. 142 treated (22 mg/kg).
Change in blood glucose at various time points was measured as percent increase or decrease from basal glucose level. Area under the curve (AUC) for glucose was calculated using WinNonlin software.

SMILES: N#CC1CSCN1C(=O)CN(N)C1CCN(CC(=O)Nc2ccc(Cl)cn2)CC1 (stereo not drawn) [Compound No. 95]
- Glucose excursions after a 1 gm/kg glucose load ([1]; 0 min): 0.0
- AUC values mM * min of glucose excursion ([1]; 5 min before 1 gm/kg glucose load, Mean ± SD, P < 0.05 vs vehicle): 413.3±134.6 mM * min and 413.3 ± 134.6a mM * min
- effect on hyperglycemia (in words) ([1]; nSTZ induced diabetic rats): controls hyperglycemia and brings the glucose levels to normoglycemic range
- Glucose excursions after a 1 gm/kg glucose load ([1]; 10 min): 3.9
- Glucose excursions after a 1 gm/kg glucose load ([1]; 20 min): 5.9
- Glucose excursions after a 1 gm/kg glucose load ([1]; 30 min): 7.8
- Glucose excursions after a 1 gm/kg glucose load ([1]; 45 min): 6.2
- Glucose excursions after a 1 gm/kg glucose load ([1]; 60 min): 4.1
- Glucose excursions after a 1 gm/kg glucose load ([1]; 75 min): 2.7
- Glucose excursions after a 1 gm/kg glucose load ([1]; 90 min): 0.5
- Glucose excursions after a 1 gm/kg glucose load ([1]; 120 min): −2.8
- Glucose excursions after a 1 gm/kg glucose load ([1]; 150 min): −4.1
- Glucose excursions after a 1 gm/kg glucose load ([1]; 180 min): −3.9
- % Activity (antioxidant, DPPH) ([2]; Concentration 12.5 μM, 12.5 µM): 22.06%
- % Activity (antioxidant, DPPH) ([2]; Concentration 25 μM, 25 µM): 36.87%
- % Activity (antioxidant, DPPH) ([2]; Concentration 50 μM, 50 µM): 44.81%
- % Activity (antioxidant, DPPH) ([2]; Concentration 100 μM, 100 µM): 65.52%

SMILES: Cc1nc(NC(=O)CN2CCC(N(N)CC(=O)N3CSCC3C#N)CC2)sc1C (stereo not drawn) [compound 119, 3-[1-oxo-2-(1-(1-(2-oxo-2-(4,5-dimethylthiazole-2-yl)aminoethyl)piperidin-4-yl)) hydrazino]ethyl-4-cyanothiazolidine, tris-trifluoroacetate]
- % Activity (antioxidant, DPPH) ([2]; Concentration 100 μM): 54.93%
- IC50 (Porcine DPP-IV): 0.185 ± 0.01 µM

SMILES: N#Cc1ccc(NC(=O)CN2CCC(N(N)CC(=O)N3CSCC3C#N)CC2)nc1 (stereo not drawn) [compound 120, 3-[1-oxo-2-(1-(1-(2-oxo-2(5-cyanopyridin-2-yl)aminoethyl)piperidin-4-yl))hydrazino]ethyl-4-cyanothiazolidine, tris-trifluoroacetate]
- % Activity (antioxidant, DPPH) ([2]; Concentration 100 μM): 55.03%
- IC50 (Porcine DPP-IV): 0.09 ± 0.02 µM

SMILES: N#CC1CSCN1C(=O)CN(N)C1CCN(CC(=O)Nc2ccc3c(c2)OCO3)CC1 (stereo not drawn) [compound 130, 3-[1-oxo-2-(1-(1-(2-oxo-2-(3,4-methelenedioxyphenyl)aminoethyl)piperidine-4-yl))hydrazino]ethyl-4-cyanothiazolidine, bis-trifluoroacetate]
- % Activity (antioxidant, DPPH) ([2]; Concentration 100 μM): 56.37%
- IC50 (Porcine DPP-IV): 0.24 ± 0.025 µM

SMILES: N#CC1CSCN1C(=O)CN(N)C1CCN(CC(=O)Nc2ccc(S(N)(=O)=O)cc2)CC1 (stereo not drawn) [compound 131, 3-[1-oxo-2-(1-(1-(2-oxo-2-(4-aminosulphonylphenyl)aminoethyl)piperidin-4-yl))hydrazino]ethyl-4-cyanothiazolidine, bis-trifluoroacetate]
- % Activity (antioxidant, DPPH) ([2]; Concentration 100 μM): 57.73%
- IC50 (Porcine DPP-IV): 0.0985 ± 0.012 µM

SMILES: Cl.Cl.Cl.N#Cc1ccc(NC(=O)CN2CCC(N(N)CC(=O)N3CSCC3C#N)CC2)nc1 (stereo not drawn) [compound 140, 3-[1-oxo-2-(1-(1-(2-oxo-2-(5-cyanopyridin-2-yl)aminoethyl)piperidin-4-yl))hydrazino]ethyl-4-cyano thiazolidine, trihydrochloride]
- percent change in blood glucose from basal glucose level (nOSTZ diabetic rats; 0 min): 0.0 ± 0.0%
- peak glucose levels (% from basal level) (nOSTZ diabetic rats): 99.19±17.87%
- glucose tolerance (in words) (nOSTZ diabetic rats): improved glucose tolerance
- percent change in blood glucose from basal glucose level (nOSTZ diabetic rats; 5 min): 21.97 ± 1.14%
- percent change in blood glucose from basal glucose level (nOSTZ diabetic rats; 10 min): 49.11 ± 11.7%
- percent change in blood glucose from basal glucose level (nOSTZ diabetic rats; 15 min): 64.67 ± 10.17%
- percent change in blood glucose from basal glucose level (nOSTZ diabetic rats; 20 min): 69.62 ± 12.73%
- percent change in blood glucose from basal glucose level (nOSTZ diabetic rats; 30 min): 90.29 ± 22.93%
- percent change in blood glucose from basal glucose level (nOSTZ diabetic rats; 45 min): 99.19 ± 17.87%
- percent change in blood glucose from basal glucose level (nOSTZ diabetic rats; 60 min): 82.76 ± 16.22%
- percent change in blood glucose from basal glucose level (nOSTZ diabetic rats; 90 min): 34.3 ± 20.32%
- percent change in blood glucose from basal glucose level (nOSTZ diabetic rats; 120 min): −21.87 ± 25.68%
- percent change in blood glucose from basal glucose level (nOSTZ diabetic rats; 180 min): −45.71 ± 18.48%
- percent change in blood glucose from basal glucose level (nOSTZ diabetic rats; 240 min): −48.6 ± 13.58%
- percent change in blood glucose from basal glucose level (nOSTZ diabetic rats; 360 min): −49.76 ± 10.31%
- IC50 (Porcine DPP-IV; trihydrochloride): 0.13 ± 0.03 µM

SMILES: N#CC1CSCN1C(=O)CN(N)C1CCN(CC(=O)Nc2ccc(S(N)(=O)=O)cc2)CC1 (stereo not drawn) [compound 142, 3-[1-oxo-2-(1-(1-(2-oxo-2-(4-aminosulphonylphenyl)aminoethyl)piperidin-4-yl))hydrazino]ethyl-4-cyano thiazolidine, dihydrochloride]
- percent change in blood glucose from basal glucose level (nOSTZ diabetic rats; 0 min): 0.0 ± 0.0%
- peak glucose levels (% from basal level) (nOSTZ diabetic rats): 87.25±15.61%
- glucose tolerance (in words) (nOSTZ diabetic rats): improved glucose tolerance
- percent change in blood glucose from basal glucose level (nOSTZ diabetic rats; 5 min): 9.79 ± 4.13%
- percent change in blood glucose from basal glucose level (nOSTZ diabetic rats; 10 min): 29.41 ± 3.4%
- percent change in blood glucose from basal glucose level (nOSTZ diabetic rats; 15 min): 46.51 ± 5.23%
- percent change in blood glucose from basal glucose level (nOSTZ diabetic rats; 20 min): 56.51 ± 4.33%
- percent change in blood glucose from basal glucose level (nOSTZ diabetic rats; 30 min): 77.93 ± 12.12%
- percent change in blood glucose from basal glucose level (nOSTZ diabetic rats; 45 min): 87.25 ± 15.61%
- percent change in blood glucose from basal glucose level (nOSTZ diabetic rats; 60 min): 67.33 ± 11.49%
- percent change in blood glucose from basal glucose level (nOSTZ diabetic rats; 90 min): 67.45 ± 9.8%
- percent change in blood glucose from basal glucose level (nOSTZ diabetic rats; 120 min): 31.4 ± 8.51%
- percent change in blood glucose from basal glucose level (nOSTZ diabetic rats; 180 min): −48.05 ± 5.75%
- percent change in blood glucose from basal glucose level (nOSTZ diabetic rats; 240 min): −58.87 ± 6.10%
- percent change in blood glucose from basal glucose level (nOSTZ diabetic rats; 360 min): −63.57 ± 4.77%
- IC50 (Porcine DPP-IV): 0.07 ± 0.01 µM
